The record followed here is the supplement of paper PMC11208160.

The nature of this data set: recombinant UMI read abundance after kanamycin selection (control-corrected) (log10(CPM+1)); higher = more efficient recombination; extreme values may be limits of the assay; sequences stand for … in AGTGCAGAGAAAATCGGCCAGTTTTCTCTGCCTGCAGTCCGCATGCCGTGGGACCCCTTGGGTTCTAACCTGTTGCCTAGATTTATGCAGCGGACTGCCTTTCTCCCAAAGTGATAAACCGG…AGGTTGGTTTCACT; site = the 11-nt donor. The method, boiled down: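 Values are reported as log10(CPM+1), obtained by converting sequencing counts to CPM, averaging replicates and scaling by control-derived factors. The counts came from recombinant UMIs amplified by PCR across the donor–target junction. These UMIs came from a pooled Escherichia coli screen of donor and donor-binding-loop pairs for the IS621 bridge recombinase, plated with IPTG (0.07 mM) plus kanamycin or left unselected, in two replicates each.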
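Further: IS621 bridge recombinase in Escherichia coli cells against a fixed T5 target plasmid.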

For “TGAGGACCATGGACCGGTTTTCCCGGTAATCCGTATTTGGT (site TGAGGACCTAC)”, the “recombinant UMI read abundance (log10)” value came out at 0.00901.

For “TGAGGAGCATGGACCGGTTTTCCCGGTAATCCGTATTTGGT (site TGAGGAGCTAC)”, the “recombinant UMI read abundance (log10)” value worked out at 1.12.

As for “TGAGGCTCATGGACCGGTTTTCCCGGTAATCCGTATTTGGT (site TGAGGCTCTAC)”, the “recombinant UMI read abundance (log10)” value is 1.76.

As to “TGAGTTTCATGGACCGGTTTTCCCGGTAATCCGTATTTGCT (site TGAGTTTCTAG)”, the “recombinant UMI read abundance (log10)” value stood at 1.54.

Take “TGATACTCATGGACCGGTTTTCCCGGTAATCCGTATTTGCA (site TAATACTCTTG)”: the “recombinant UMI read abundance (log10)” value worked out at 2.38.

As to “TGATACTCATGGACCGGTTTTCCCGGTAATCCGTATTTGCA (site TCATACTCTTG)”, the “recombinant UMI read abundance (log10)” value came to 1.29.

Regarding “TGATACTCATGGACCGGTTTTCCCGGTAATCCGTATTTGCA (site TGATACTCTTG)”, the “recombinant UMI read abundance (log10)” value stood at 2.51.

Regarding “TGATACTCATGGACCGGTTTTCCCGGTAATCCGTATTTGCA (site TTATACTCTTG)”, the “recombinant UMI read abundance (log10)” value came out at 1.96.

As to “TGATCATCATGGACCGGTTTTCCCGGTAATCCGTATTTGCG (site CGATCATCTAG)”, the “recombinant UMI read abundance (log10)” value was 0.

As to “TGATCATCATGGACCGGTTTTCCCGGTAATCCGTATTTGCG (site TGATCATCTCG)”, the “recombinant UMI read abundance (log10)” value turned out to be 1.27.

Turning to “TGATCGACATGGACCGGTTTTCCCGGTAATCCGTATTTGTT (site AGATCGACTAA)”, the “recombinant UMI read abundance (log10)” value was 0.0146.

Turning to “TGATCGACATGGACCGGTTTTCCCGGTAATCCGTATTTGTT (site CGATCGACTAA)”, the “recombinant UMI read abundance (log10)” value came to 0.0214.

Turning to “TGATCGACATGGACCGGTTTTCCCGGTAATCCGTATTTGTT (site GGATCGACTAA)”, the “recombinant UMI read abundance (log10)” value was determined as 0.0286.

Consider “TGATCGACATGGACCGGTTTTCCCGGTAATCCGTATTTGTT (site TGATCGACTAA)”, for which the “recombinant UMI read abundance (log10)” value stood at 0.0254.

“TGATTATCATGGACCGGTTTTCCCGGTAATCCGTATTTGAA (site TGATTATCTTT)”: the “recombinant UMI read abundance (log10)” value stood at 1.32.

Turning to “TGCACAGCATGGACCGGTTTTCCCGGTAATCCGTATTTGGC (site TGCACAGCTGC)”, the “recombinant UMI read abundance (log10)” value stood at 1.05.

In the case of “TGCATATCATGGACCGGTTTTCCCGGTAATCCGTATTTGAC (site TGCATATCTGT)”, the “recombinant UMI read abundance (log10)” value came to 1.25.

On to “TGCATCCCATGGACCGGTTTTCCCGGTAATCCGTATTTGAC (site TGCATCCCTGT)”, for which the “recombinant UMI read abundance (log10)” value stood at 0.448.

Take “TGCATGCCATGGACCGGTTTTCCCGGTAATCCGTATTTGGT (site TGCATGCCTAC)”: the “recombinant UMI read abundance (log10)” value was 0.0134.

In the case of “TGCCAATCATGGACCGGTTTTCCCGGTAATCCGTATTTGTG (site TGCCAATCTCA)”, the “recombinant UMI read abundance (log10)” value is 0.0694.

Turning to “TGCCACACATGGACCGGTTTTCCCGGTAATCCGTATTTGAG (site TGCCACACTCT)”, the “recombinant UMI read abundance (log10)” value turned out to be 0.305.

On to “TGCCCCGCATGGACCGGTTTTCCCGGTAATCCGTATTTGTT (site TGCCCCGCTAA)”, for which the “recombinant UMI read abundance (log10)” value is 0.0107.

In the case of “TGCCGATCATGGACCGGTTTTCCCGGTAATCCGTATTTGGT (site TGCCGATCTAC)”, the “recombinant UMI read abundance (log10)” value came out at 0.

As for “TGCCGCTCATGGACCGGTTTTCCCGGTAATCCGTATTTGGA (site TGCCGCTCTTC)”, the “recombinant UMI read abundance (log10)” value was determined as 0.324.

As for “TGCCGGTCATGGACCGGTTTTCCCGGTAATCCGTATTTGCA (site TGCCGGTCTTG)”, the “recombinant UMI read abundance (log10)” value is 1.45.

Consider “TGCCGTTCATGGACCGGTTTTCCCGGTAATCCGTATTTGAT (site TGCCGTTCTAT)”, for which the “recombinant UMI read abundance (log10)” value worked out at 0.

“TGCCTCGCATGGACCGGTTTTCCCGGTAATCCGTATTTGAT (site TGCCTCGCTAT)”: the “recombinant UMI read abundance (log10)” value came out at 0.0124.

Take “TGCGTCACATGGACCGGTTTTCCCGGTAATCCGTATTTGCC (site TGCGTCACTGG)”: the “recombinant UMI read abundance (log10)” value was 1.97.

On to “TGCTAATCATGGACCGGTTTTCCCGGTAATCCGTATTTGCT (site TGCTAATCTAG)”, for which the “recombinant UMI read abundance (log10)” value was 1.08.

For the sequence “TGCTAGGCATGGACCGGTTTTCCCGGTAATCCGTATTTGGG (site TGCTAGGCTAC)”, the “recombinant UMI read abundance (log10)” value worked out at 0.0327.

With “TGCTAGGCATGGACCGGTTTTCCCGGTAATCCGTATTTGGG (site TGCTAGGCTCC)”, the “recombinant UMI read abundance (log10)” value worked out at 0.00935.

Consider “TGCTAGGCATGGACCGGTTTTCCCGGTAATCCGTATTTGGG (site TGCTAGGCTGC)”, for which the “recombinant UMI read abundance (log10)” value turned out to be 0.

As for “TGCTAGGCATGGACCGGTTTTCCCGGTAATCCGTATTTGGG (site TGCTAGGCTTC)”, the “recombinant UMI read abundance (log10)” value came out at 0.00914.

Consider “TGCTAGTCATGGACCGGTTTTCCCGGTAATCCGTATTTGAC (site TGCTAGTCTGT)”, for which the “recombinant UMI read abundance (log10)” value was 0.

In the case of “TGCTCAACATGGACCGGTTTTCCCGGTAATCCGTATTTGGC (site TGCTCAACTGC)”, the “recombinant UMI read abundance (log10)” value stood at 0.

Turning to “TGCTCATCATGGACCGGTTTTCCCGGTAATCCGTATTTGCT (site CGATCATCTAG)”, the “recombinant UMI read abundance (log10)” value came to 0.

Regarding “TGCTCATCATGGACCGGTTTTCCCGGTAATCCGTATTTGCT (site TGCTCATCTAG)”, the “recombinant UMI read abundance (log10)” value came out at 1.08.

Regarding “TGCTCCACATGGACCGGTTTTCCCGGTAATCCGTATTTGGA (site TGCTCCACTTC)”, the “recombinant UMI read abundance (log10)” value worked out at 0.

In the case of “TGCTCCCCATGGACCGGTTTTCCCGGTAATCCGTATTTGGT (site TGCTCCCCTAC)”, the “recombinant UMI read abundance (log10)” value turned out to be 0.0121.

Regarding “TGCTGCGCATGGACCGGTTTTCCCGGTAATCCGTATTTGTG (site TGCTGCGCTCA)”, the “recombinant UMI read abundance (log10)” value is 0.0115.

“TGCTGGGCATGGACCGGTTTTCCCGGTAATCCGTATTTGGT (site TGCTAGGCTAC)”: the “recombinant UMI read abundance (log10)” value was determined as 0.109.

“TGCTGGGCATGGACCGGTTTTCCCGGTAATCCGTATTTGGT (site TGCTCGGCTAC)”: the “recombinant UMI read abundance (log10)” value worked out at 0.0121.

Take “TGCTGGGCATGGACCGGTTTTCCCGGTAATCCGTATTTGGT (site TGCTGGGCTAC)”: the “recombinant UMI read abundance (log10)” value stood at 0.306.

In the case of “TGCTGGGCATGGACCGGTTTTCCCGGTAATCCGTATTTGGT (site TGCTTGGCTAC)”, the “recombinant UMI read abundance (log10)” value turned out to be 0.0187.

With “TGCTGTCCATGGACCGGTTTTCCCGGTAATCCGTATTTGTT (site TGCTGTCCTAA)”, the “recombinant UMI read abundance (log10)” value is 0.00448.

On to “TGGAAGACATGGACCGGTTTTCCCGGTAATCCGTATTTGCG (site AGGAAGACTTG)”, for which the “recombinant UMI read abundance (log10)” value was determined as 0.

As to “TGGAAGACATGGACCGGTTTTCCCGGTAATCCGTATTTGCG (site TGGAAGACTCG)”, the “recombinant UMI read abundance (log10)” value was 2.05.

Turning to “TGGACAACATGGACCGGTTTTCCCGGTAATCCGTATTTGTG (site TGGACAACTCA)”, the “recombinant UMI read abundance (log10)” value was 0.209.

Turning to “TGGACCTCATGGACCGGTTTTCCCGGTAATCCGTATTTGAG (site TGGACCTCTCT)”, the “recombinant UMI read abundance (log10)” value was 0.96.

For the sequence “TGGATCACATGGACCGGTTTTCCCGGTAATCCGTATTTGCT (site TGGATCACTAG)”, the “recombinant UMI read abundance (log10)” value turned out to be 1.72.

With “TGGCAACCATGGACCGGTTTTCCCGGTAATCCGTATTTGCT (site TGGCAACCTAG)”, the “recombinant UMI read abundance (log10)” value was determined as 0.

As to “TGGCAAGCATGGACCGGTTTTCCCGGTAATCCGTATTTGGC (site TGGCAAGCTGC)”, the “recombinant UMI read abundance (log10)” value came out at 0.585.

For “TGGCATACATGGACCGGTTTTCCCGGTAATCCGTATTTGTA (site TGGCATACTTA)”, the “recombinant UMI read abundance (log10)” value stood at 0.751.

Consider “TGGCCGGCATGGACCGGTTTTCCCGGTAATCCGTATTTGGA (site TGGCCGGCTAC)”, for which the “recombinant UMI read abundance (log10)” value was 0.0385.

With “TGGCCGGCATGGACCGGTTTTCCCGGTAATCCGTATTTGGA (site TGGCCGGCTCC)”, the “recombinant UMI read abundance (log10)” value was 0.0416.

For “TGGCCGGCATGGACCGGTTTTCCCGGTAATCCGTATTTGGA (site TGGCCGGCTGC)”, the “recombinant UMI read abundance (log10)” value was found to be 0.

With “TGGCCGGCATGGACCGGTTTTCCCGGTAATCCGTATTTGGA (site TGGCCGGCTTC)”, the “recombinant UMI read abundance (log10)” value turned out to be 0.0151.

“TGGCCGGCATGGACCGGTTTTCCCGGTAATCCGTATTTGGG (site TGGCCGGCTAC)”: the “recombinant UMI read abundance (log10)” value worked out at 0.0282.

Turning to “TGGCCGGCATGGACCGGTTTTCCCGGTAATCCGTATTTGGG (site TGGCCGGCTCC)”, the “recombinant UMI read abundance (log10)” value stood at 0.059.

“TGGCCGGCATGGACCGGTTTTCCCGGTAATCCGTATTTGGG (site TGGCCGGCTGC)”: the “recombinant UMI read abundance (log10)” value is 0.

In the case of “TGGCCGGCATGGACCGGTTTTCCCGGTAATCCGTATTTGGG (site TGGCCGGCTTC)”, the “recombinant UMI read abundance (log10)” value stood at 0.00405.

For “TGGCCGGCATGGACCGGTTTTCCCGGTAATCCGTATTTGTC (site TGGCCGGCTGA)”, the “recombinant UMI read abundance (log10)” value turned out to be 0.815.

Turning to “TGGCCGGCATGGACCGGTTTTCCCGGTAATCCGTATTTGTC (site TGGCCGGCTGC)”, the “recombinant UMI read abundance (log10)” value was determined as 0.

In the case of “TGGCCGGCATGGACCGGTTTTCCCGGTAATCCGTATTTGTC (site TGGCCGGCTGG)”, the “recombinant UMI read abundance (log10)” value amounted to 0.

Take “TGGCCGGCATGGACCGGTTTTCCCGGTAATCCGTATTTGTC (site TGGCCGGCTGT)”: the “recombinant UMI read abundance (log10)” value was 0.

“TGGCGGGCATGGACCGGTTTTCCCGGTAATCCGTATTTGGC (site TGGCAGGCTGC)”: the “recombinant UMI read abundance (log10)” value turned out to be 1.38.

Consider “TGGCGGGCATGGACCGGTTTTCCCGGTAATCCGTATTTGGC (site TGGCCGGCTGC)”, for which the “recombinant UMI read abundance (log10)” value was found to be 0.00581.

Take “TGGCGGGCATGGACCGGTTTTCCCGGTAATCCGTATTTGGC (site TGGCGGGCTGC)”: the “recombinant UMI read abundance (log10)” value stood at 1.79.
